From patent US7829560B2, “1,4-disubstituted naphthalenes as inhibitors of P38 MAP kinase” (Arqule, Inc., priority 2004, dated 2010)
pIC50: −log10 of the molar value.

Target: T1, p38α (Homo sapiens, UniProt Q16539)
T1 construct: p38 MAP Kinases are recombinant human full-length proteins with an amino-terminal GST fusion; GST (N); purchased Upstate Biotechnology Inc; host or cells: E. coli
Test: p38 MAP Kinase assay: inhibition of ATF2 phosphorylation, ELISA
Type: biochemical
Conditions: for inhibition at 10 µM: substrate ATF2, read-out: [ENZ] P38 ALPHA, PCT INH, ELISA (10 uM;ATF2) (Percent); for pIC50: ATF2 phosphorylation, read-out: [ENZ] P38 ALPHA, IC50, ELISA
Source text: Compounds of the invention are screened for the ability to inhibit ATF2 phosphorylation by p38 MAP Kinase in vitro. The ability of compounds to inhibit ATF2 phosphorylation in this in vitro assay is correlated with the inhibition of p38 MAP Kinase and TNFα expression in vivo, and is therefore an indicator of potential in vivo therapeutic activity (Raingeaud, J., et al, J. Biol. Chem., 270: 7420-7426, 1995, Brinkman, M. N., et al, J. Biol. Chem. 274: 30882-30886, 1999 and Fuchs, S. Y. et al, J. Biol. Chem. 275: 12560-12564, 2000).
Materials: All kinases and the substrate ATF2 are acquired from Upstate Biotechnology Inc. p38 MAP Kinases are recombinant human full-length proteins with an amino-terminal GST fusion, expressed in and purified from E. coli. ATF2 is a GST fusion protein containing amino acids 19-96 of human ATF2 expressed in E. coli. All proteins are aliquoted and stored at −80° C.
Methods: p38 MAP Kinase assays are performed using an assay buffer containing 25 mM HEPES, pH 7.5, 10 mM MgCl2, 2 mM DTT, 20 mM β-glycerophosphate, 0.1 mM Na3VO4, 40 μM ATP and 1.25 μM of ATF2 and in the absence or presence of 1% human serum albumin, Method I and II, respectively, with 0.4-6 ng of protein depending on the kinase used. Compounds are serially diluted in DMSO and 2 μL of test compound at 25× final concentration is used. The vehicle control receives DMSO only. Test compounds are pre-incubated with 20 μl of enzyme in kinase buffer (25 mM HEPES, pH 7.5, 10 mM MgCl2, 2 mM DTT, 20 mM β-glycerophosphate, 0.1 mM Na3VO4 in the absence or presence of 1% human serum albumin, Method I and II, respectively) at room temperature for 15 minutes. […] The reactions are incubated for 30 minutes at 37° C. and terminated by the addition of 18 μl of 200 mM EDTA. An ELISA method (I or II) is used to measure the phosphorylation of ATF2 at Thr 69. Method I: 96-well high binding plates (Corning 3369) are coated with 50 μl of kinase reaction for 1 hour at 37° C. The coated plates are washed with 200 μl washing buffer (25 mM Tris HCl, pH 8.3, 192 mM glycine, 0.1% SDS and 0.05% Tween-20) three times. The plates are then washed three times with SuperBlock in TBS (Pierce, 37535). After blocking, plates are incubated with 50 μl of rabbit anti-phospho-ATF2 antibody (Cell Signaling, 9221L, 1:500) for 30 minutes at 37° C. Plates are washed three times with washing buffer prior to incubation with 50 μl HRP-conjugated goat anti-rabbit antibody (Cell Signaling, 7074, 1:500) for 30 minutes at 37° C. Plates are then washed three times with washing buffer before incubation with 50 μl of Ultra TMB-ELISA (Pierce, 34028) for 8 minutes at room temperature. Finally, 50 ul of phosphoric acid (1 M) is added to stop reactions and plate absorbance is read at 450 nm on a SpectraMax 250 plate reader. Method II: 96-well high binding plates (Corning 3369) are coated with 400 ng of monoclonal antibody against GST-tag (Cell signaling) in 100 μl containing sodium borate (pH 8.3) for 90 minutes at 37° C. The plates are washed with 200 μl washing buffer (25 mM Tris HCl, pH 7.2, 150 mM NaCl and Tween-20) three times and blocked with 200 μl of 5% nonfat milk for 30 minutes at room temperature. The plates are washed three times with washing buffer, 50 μl of stopped kinase reaction are added to each well and incubated for 80 minutes at 37° C. The plates are washed three times with 200 μl washing buffer, and the plates are incubated with 50 μl of rabbit anti-phospho-ATF2 antibody (Cell Signaling, 9221L, 1:500) for 30 minutes at 37° C. Plates are washed three times with washing buffer prior to incubation with 50 μl HRP-conjugated goat anti-rabbit antibody (Cell Signaling, 7074, 1:500) for 30 minutes at 37° C. Plates are washed three times with washing buffer before incubation with 50 μl of Ultra TMB-ELISA (Pierce, 34028) for 25 minutes at room temperature. Finally, 50 μl of phosphoric acid (1 M) is added to stop reactions and plate absorbance is read at 450 nm on a SpectraMax 250 plate reader. […]

T1 sequence (Q16539 whole entry, the tested form may be a part): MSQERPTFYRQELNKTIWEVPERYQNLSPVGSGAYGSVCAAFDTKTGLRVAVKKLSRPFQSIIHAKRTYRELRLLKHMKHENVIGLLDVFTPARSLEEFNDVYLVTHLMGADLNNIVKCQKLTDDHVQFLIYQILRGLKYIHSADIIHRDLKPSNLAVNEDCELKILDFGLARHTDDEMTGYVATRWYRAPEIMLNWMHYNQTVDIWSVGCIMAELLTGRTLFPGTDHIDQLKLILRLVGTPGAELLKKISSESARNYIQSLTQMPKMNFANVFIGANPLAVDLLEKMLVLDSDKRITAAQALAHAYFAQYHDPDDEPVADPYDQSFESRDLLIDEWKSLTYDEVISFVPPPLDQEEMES

| Compound | inhibition at 10 µM [%] | pIC50 |
| --- | --- | --- |
| O=C(Nc1ccc(OCCN2CCOCC2)c2ccccc12)c1cccc(-c2ccc(Cl)cc2Cl)c1 [Compound B95] | 58 | 5.76 |
| O=C(Nc1ccc(OCCN2CCOCC2)c2ccccc12)c1cccc(-c2cccc(OCc3ccccc3)c2)c1 [Compound B119] | 11 | < 4.00 |
| CCC(C)N(C)c1cccc(C(=O)Nc2ccc(OCCN3CCOCC3)c3ccccc23)n1 (stereo not shown) [Compound B149] | 8.5 |  |
| O=C(Nc1ccc(OCCN2CCOCC2)c2ccccc12)c1cccc(-c2cc(Cl)cc(Cl)c2)c1 [Compound B96] | 31 | < 4.00 |
| O=C(Nc1ccc(OCCN2CCOCC2)c2ccccc12)c1cccc(-c2cccc(Cl)c2)c1 [Compound B94] | 71 | 5.94 |
| O=C(Nc1ccc(OCCN2CCOCC2)c2ccccc12)c1cccc2c1Cc1ccccc1-2 [Compound B75] | 27 | < 5.00 |
| O=C(Nc1ccc(OCCN2CCOCC2)c2ccccc12)c1cccc(-c2ccccc2C(F)(F)F)c1 [Compound B97] | 31 | < 5.00 |
| O=C(Nc1ccc(OCCN2CCCCC2)c2ccccc12)c1ccnc(Cl)c1 [Compound B7] | 21 |  |
| CCOC(=O)N1CCN(CCOc2ccc(NC(=O)c3ccc(CN4CCS(=O)(=O)CC4)cc3)c3ccccc23)CC1 [Compound B16] | 27.5 |  |
| CN1CCN(CCOc2ccc(NC(=O)c3ccnc(Cl)c3)c3ccccc23)CC1 [Compound B6] | 7.5 |  |
| O=C(Nc1ccc(OCCN2C(=O)c3ccccc3C2=O)c2ccccc12)c1cc(F)cc(N2CCOCC2)c1 [Compound B187] |  | < 5.00 |
| O=C(Nc1ccc(OCCN2CCOCC2)c2ccccc12)c1cccc2c1C(=O)c1ccccc1-2 [Compound B74] | 31 |  |
| CC(C)(C)CCNc1cccc(C(=O)Nc2ccc(OCCN3CCOCC3)c3ccccc23)n1 [Compound B147] | 12 |  |
| O=C(Nc1ccc(OCCN2CCOCC2)c2ccccc12)c1cccc(/C=C/c2ccccc2)c1 [Compound B98] | 15 | < 5.00 |
| Cc1cc(C)cc(-c2cccc(C(=O)Nc3ccc(OCCN4CCOCC4)c4ccccc34)c2)c1 [Compound B113] | 29 | < 5.00 |
| O=C(Nc1ccc(OCCN2CCOCC2)c2ccccc12)c1cccc(NCc2ccc(F)cc2)c1 [Compound B170] | 46 |  |
| CCOc1ccc(-c2cccc(C(=O)Nc3ccc(OCCN4CCOCC4)c4ccccc34)c2)cc1 [Compound B107] | 2 |  |
| O=C(Nc1ccc(OCCN2CCOCC2)c2ccccc12)c1cccc(-c2cc(C(F)(F)F)cc(C(F)(F)F)c2)c1 [Compound B92] | 0 |  |
| Cc1ccc(-c2cccc(C(=O)Nc3ccc(OCCN4CCOCC4)c4ccccc34)c2)cc1 [Compound B93] | 34 | < 5.00 |
| COc1cc(-c2cccc(C(=O)Nc3ccc(OCCN4CCOCC4)c4ccccc34)c2)cc(OC)c1OC [Compound B112] | 15 | < 4.00 |
| CC(C)(C)c1ccc(-c2cccc(C(=O)Nc3ccc(OCCN4CCOCC4)c4ccccc34)c2)cc1 [Compound B106] | 0 |  |
| O=C(Nc1ccc(OCCN2CCOCC2)c2ccccc12)c1cccc(C(=O)c2ccccc2)c1 [Compound B78] | 34 | < 5.00 |

The remaining lines, values ahead:

| inhibition at 10 µM [%] | pIC50 | Compound |
| --- | --- | --- |
| 36 |  | O=C(Nc1ccc(OCCN2CCOCC2)c2ccccc12)c1ccnc(N2Cc3ccccc3C2)c1 [Compound B132] |
| 1 |  | Cc1cc(C(=O)Nc2ccc(OCCN3CCOCC3)c3ccccc23)nn1C [Compound B79] |
| 11 |  | O=C(Nc1ccc(OCCN2CCOCC2)c2ccccc12)c1cccc(N2CCC(CO)CC2)n1 [Compound B145] |
| 33 | < 4.00 | O=C(Nc1ccc(OCCN2CCOCC2)c2ccccc12)c1cccc(N2CCCCC2)n1 [Compound B142] |
| 25 |  | Cc1cccc(N2CCN(c3cccc(C(=O)Nc4ccc(OCCN5CCOCC5)c5ccccc45)c3)CC2)c1 [Compound B172] |
|  | < 5.00 | CC(C)(C)C1CCC(Oc2cc(F)cc(C(=O)Nc3ccc(OCCN4CCOCC4)c4ccccc34)c2)CC1 (stereo not shown) [Compound B216] |
| 31.5 |  | O=C(Nc1ccc(OCCN2CCOCC2)c2ccccc12)c1ccnc(N2CCc3ccccc3C2)c1 [Compound B121] |
| 20 | < 4.00 | O=C(Nc1ccc(OCCN2CCOCC2)c2ccccc12)c1cccc(N2CCCCCCC2)n1 [Compound B135] |
| 0 |  | Cc1cc(C(=O)Nc2ccc(OCCN3CCOCC3)c3ccccc23)cc(N2CCC(N3CCCC3)CC2)n1 [Compound B152] |
| 18 |  | CCOC(=O)N1CCN(CCOc2ccc(NC(=O)c3cccc(N4CCOCC4)c3)c3ccccc23)CC1 [Compound B15] |
| 3 |  | Cc1cc(C(=O)Nc2ccc(OCCN3CCOCC3)c3ccccc23)cc(Cl)n1 [Compound B64] |
| 15 | < 4.00 | Cc1cc(C(=O)Nc2ccc(OCCN3CCOCC3)c3ccccc23)cc(N2CCc3ccccc3C2)n1 [Compound B150] |
| 10 |  | CN(C)CCN(C)c1cc(F)cc(C(=O)Nc2ccc(OCCN3CCOCC3)c3ccccc23)c1 [Compound B68] |
| 32 | < 4.00 | CN(c1cccc(C(=O)Nc2ccc(OCCN3CCOCC3)c3ccccc23)n1)C1CCCCC1 [Compound B137] |
| 19 | < 4.00 | Cc1cc(C(=O)Nc2ccc(OCCN3CCOCC3)c3ccccc23)cc(N2CCCC2c2ccccc2Cl)n1 (stereo not shown) [Compound B156] |
| 38 |  | C[C@@H]1CN(CCOc2ccc(NC(=O)c3ccnc(N4CCOCC4)c3)c3ccccc23)C[C@H](C)O1 [Compound B23] |
| 34 |  | O=C(Nc1ccc(OCCN2CCOCC2)c2ccccc12)c1ccnc(N2CCC(CO)CC2)c1 [Compound B131] |
| 16 |  | O=C(Nc1ccc(OCCN2CCOCC2)c2ccccc12)c1cccc(N2CCC(N3CCCC3)CC2)c1 [Compound B171] |
| 7 |  | O=C(Nc1ccc(OCCN2CCOCC2)c2ccccc12)c1cccc(N2CCN(c3ccc(F)cc3)CC2)n1 [Compound B139] |
| 0 |  | O=C(Nc1ccc(OCCN2CCOCC2)c2ccccc12)c1cccc(-c2ccc(C3CCCCC3)cc2)c1 [Compound B118] |
| 9 |  | CCn1nc(C)cc1C(=O)Nc1ccc(OCCN2CCOCC2)c2ccccc12 [Compound B80] |
| 10 |  | CC(=O)N1CCN(c2cccc(C(=O)Nc3ccc(OCCN4CCOCC4)c4ccccc34)n2)CC1 [Compound B136] |
| 23.5 |  | O=C(Nc1ccc(OCCN2CCOCC2)c2ccccc12)c1ccnc(N2CCC(N3CCCC3)CC2)c1 [Compound B125] |
